Measured values as given in ChEMBL document CHEMBL4406807, “Discovery of 3,4,6-Trisubstituted Piperidine Derivatives as Orally Active, Low hERG Blocking Akt Inhibitors via Conformational Restriction and Structure-Based Design” (J Med Chem, 2019).

Columns and labels:
[1] = target: RAC-alpha serine/threonine-protein kinase (Homo sapiens, UniProt P31749)
Description: Inhibition of human Akt1 expressed in Escherichia coli using STK Substrate 2-biotin as substrate incubated for 1 hr by HTRF assay

HCT-116 = experiment: cells; conditions: Homo sapiens, HCT-116, 72 h
OVCAR-8 = experiment: Antiproliferative activity against human OVCAR8 cells; assay type: functional, cell-based
hERG (KCNH2) = hERG (KCNH2) (Homo sapiens, UniProt Q12809); experiment: Inhibition of ERG in human HEK293 cells at 3 uM at -80 mV holding potential by whole-cell patch clamp assay relative to control; assay type: cell-based; conditions: HEK293 cells expressing ERG
LNCaP = experiment: Antiproliferative activity against human LNCAP cells; assay type: functional, cell-based

Sequence of RAC-alpha serine/threonine-protein kinase (P31749 whole entry): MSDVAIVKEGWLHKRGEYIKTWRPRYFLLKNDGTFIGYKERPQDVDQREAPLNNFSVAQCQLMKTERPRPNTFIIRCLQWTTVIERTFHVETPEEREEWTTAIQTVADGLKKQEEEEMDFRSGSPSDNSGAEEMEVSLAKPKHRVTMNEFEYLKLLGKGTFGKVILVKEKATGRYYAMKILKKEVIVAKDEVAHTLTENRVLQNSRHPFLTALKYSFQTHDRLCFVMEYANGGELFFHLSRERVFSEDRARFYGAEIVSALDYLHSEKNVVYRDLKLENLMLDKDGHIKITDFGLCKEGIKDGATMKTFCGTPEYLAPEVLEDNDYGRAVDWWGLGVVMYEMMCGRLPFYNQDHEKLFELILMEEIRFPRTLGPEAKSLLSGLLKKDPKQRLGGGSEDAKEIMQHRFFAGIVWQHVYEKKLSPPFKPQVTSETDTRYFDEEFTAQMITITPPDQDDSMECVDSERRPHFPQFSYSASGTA
Sequence of hERG (KCNH2) (Q12809 whole entry): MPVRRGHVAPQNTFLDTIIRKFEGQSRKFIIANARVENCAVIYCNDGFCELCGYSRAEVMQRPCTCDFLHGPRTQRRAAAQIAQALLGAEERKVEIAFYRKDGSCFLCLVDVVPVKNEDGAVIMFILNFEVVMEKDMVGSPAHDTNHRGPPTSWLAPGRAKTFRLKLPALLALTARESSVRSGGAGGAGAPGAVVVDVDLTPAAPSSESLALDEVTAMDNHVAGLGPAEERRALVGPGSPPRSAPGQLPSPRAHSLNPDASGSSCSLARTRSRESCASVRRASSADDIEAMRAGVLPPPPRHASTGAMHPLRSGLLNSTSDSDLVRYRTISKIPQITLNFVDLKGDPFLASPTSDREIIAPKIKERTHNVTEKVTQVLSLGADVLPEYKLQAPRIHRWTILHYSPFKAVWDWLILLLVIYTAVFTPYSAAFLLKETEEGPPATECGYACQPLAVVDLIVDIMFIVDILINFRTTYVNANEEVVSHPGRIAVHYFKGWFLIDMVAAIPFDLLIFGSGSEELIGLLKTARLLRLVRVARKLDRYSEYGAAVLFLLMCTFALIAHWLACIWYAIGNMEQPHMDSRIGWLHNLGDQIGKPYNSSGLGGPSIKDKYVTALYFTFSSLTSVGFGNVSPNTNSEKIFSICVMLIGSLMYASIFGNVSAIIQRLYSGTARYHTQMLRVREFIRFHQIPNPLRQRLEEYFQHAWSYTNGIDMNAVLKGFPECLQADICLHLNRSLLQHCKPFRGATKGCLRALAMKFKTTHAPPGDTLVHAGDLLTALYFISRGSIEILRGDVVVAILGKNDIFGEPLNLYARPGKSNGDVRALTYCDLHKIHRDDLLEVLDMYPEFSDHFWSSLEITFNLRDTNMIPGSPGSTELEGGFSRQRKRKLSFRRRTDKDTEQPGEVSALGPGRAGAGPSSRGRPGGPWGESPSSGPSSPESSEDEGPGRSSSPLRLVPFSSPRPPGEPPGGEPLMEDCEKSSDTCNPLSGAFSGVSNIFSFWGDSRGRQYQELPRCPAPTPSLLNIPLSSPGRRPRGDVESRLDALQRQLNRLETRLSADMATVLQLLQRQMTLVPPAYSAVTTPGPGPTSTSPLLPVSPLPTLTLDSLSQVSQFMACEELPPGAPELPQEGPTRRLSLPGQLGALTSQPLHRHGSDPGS

Structure (SMILES)	IC50 [1] [nM]	IC50 (HCT-116) [nM]	IC50 (OVCAR-8) [nM]	IC50 (LNCaP) [nM]	inhibition at 3 µM (hERG (KCNH2)) [%]
CNc1cc(-c2ccc(C(=O)N[C@@H]3CNCC[C@H]3c3ccc(Cl)cc3)o2)ncn1	529	37100	12300	–	–
NC1(C(=O)N[C@@H](CCO)c2ccc(Cl)cc2)CCN(c2nc[nH]c3nccc2-3)CC1 [CAPIVASERTIB]	–	5200	–	178	–
Cn1ncc(Cl)c1-c1cc(C(=O)N[C@@H]2CNCC[C@H]2c2cccc(F)c2)sc1Cl	102	9430	8990	–	–
Cn1ncc(Br)c1-c1coc(C(=O)N[C@@H]2CNCC[C@H]2c2ccc(Cl)cc2)c1	35.6	2310	9010	–	–
Cn1ncc(Br)c1-c1ccc(C(=O)N[C@@H]2CNCC[C@H]2c2cccc(F)c2)nc1	182	6250	1920	–	–
Cn1cc(-c2c(Cl)cnn2C)cc1C(=O)N[C@@H]1CNCC[C@H]1c1ccc(Cl)cc1	212	3040	6200	–	–
Cn1ncc(Cl)c1-c1cc(C(=O)N[C@@H]2CNCC[C@H]2c2ccc(Cl)c(C(F)(F)F)c2)sc1Cl	322	1750	1150	–	–
Cn1ncc(Cl)c1-c1ccc(C(=O)N[C@@H]2CNCC[C@H]2c2cccc(F)c2)nc1	104	4720	3460	–	–
Cn1nccc1-c1ccc(C(=O)N[C@@H]2CNCC[C@H]2c2ccc(F)c(F)c2)cc1	21.6	3720	5330	–	25
Cn1ncc(Cl)c1-c1ccc(C(=O)N[C@@H]2CNCC[C@H]2c2cccc(F)c2)cc1	72.3	–	5820	–	10.7
Cn1ncc(Br)c1-c1oc(C(=O)N[C@@H]2CNCC[C@H]2c2ccc(Cl)cc2)cc1Br	29.8	10800	4540	–	–
Cn1nccc1-c1ccc(C(=O)N[C@@H]2CNCC[C@H]2c2cccc(F)c2)nc1	76.6	5630	7400	–	–
Cn1nccc1-c1csc(C(=O)N[C@@H]2CNCC[C@H]2c2ccc(Cl)cc2)c1	188	8510	12600	–	–
Cn1ncc(Cl)c1-c1cc(C(=O)N[C@@H]2CNCC[C@H]2c2ccc(Cl)cc2)sc1Cl	449	2440	2510	–	–
Cn1ncc(Br)c1-c1ccc(C(=O)N[C@@H]2CNCC[C@H]2c2ccc(F)c(F)c2)cn1	270	26900	6150	–	–
Cn1ncc(Cl)c1-c1ccc(C(=O)N[C@@H]2CNCC[C@H]2c2ccc(Cl)cc2)o1	13.7	2560	4280	–	–

Structure (SMILES)	IC50 [1] [nM]	IC50 (HCT-116) [nM]	IC50 (OVCAR-8) [nM]	IC50 (LNCaP) [nM]	inhibition at 3 µM (hERG (KCNH2)) [%]
Cn1ncc(Cl)c1-c1cc(C(=O)N[C@@H]2CNCC[C@H]2c2ccc(Cl)cc2)n(C)c1Cl	149	7330	12400	–	–
Cn1ncc(Br)c1-c1ccc(C(=O)N[C@@H]2CNCC[C@H]2c2ccc(Cl)cc2)o1	31.2	3760	3680	–	–
Cn1cc(-c2c(Br)cnn2C)cc1C(=O)N[C@@H]1CNCC[C@H]1c1ccc(Cl)cc1	255	8700	3030	–	63.8
Cn1nccc1-c1ccc(C(=O)N[C@@H]2CNCC[C@H]2c2ccc(F)c(F)c2)cn1	57.7	24200	2110	–	–
Cn1ncc(Br)c1-c1ccc(C(=O)N[C@@H]2CNCC[C@H]2c2ccc(F)c(F)c2)cc1	73.5	22200	2900	–	–
Cn1nccc1-c1coc(C(=O)NC2CNCCC2c2ccccc2)c1 (stereo not given)	710	–	–	–	–
Cn1cc(-c2ccc(C(=O)N[C@@H]3CNCC[C@H]3c3ccc(Cl)cc3)o2)cn1	> 1000	15100	4410	–	–
Cn1ncc(Br)c1-c1cc(C(=O)N[C@@H]2CNCC[C@H]2c2ccc(Cl)cc2)n(C)c1Br	199	7420	4920	–	–
Cn1nccc1-c1coc(C(=O)N[C@@H]2CNCC[C@H]2c2ccc(Cl)cc2)c1	29.4	1560	3500	–	–
Cn1nccc1-c1coc(C(=O)NC2CNCCC2c2ccc(F)c(F)c2)c1 (racemic)	191	–	–	–	–
Cn1nccc1-c1ccc(C(=O)N[C@@H]2CNCC[C@H]2c2ccc(Cl)cc2)o1	230	9560	6090	–	–
Cn1nccc1-c1oc(C(=O)N[C@@H]2CNCC[C@H]2c2ccc(Cl)cc2)cc1Br	162	13700	15000	–	–
O=C(N[C@@H]1CNCC[C@H]1c1ccc(Cl)cc1)c1ccc(-c2ncnc3c2CCC3O)s1 (stereo not given in full)	> 1000	23000	24000	–	–
Cn1cc(-c2coc(C(=O)N[C@@H]3CNCC[C@H]3c3ccc(Cl)cc3)c2)cn1	> 1000	23600	10000	–	–
O=C(N[C@@H]1CNCC[C@H]1c1ccc(Cl)cc1)c1ccc(-c2cn[nH]c2)o1	50.3	21800	5000	–	–

More lines, main results first:

IC50 [1] [nM]	IC50 (HCT-116) [nM]	IC50 (OVCAR-8) [nM]	IC50 (LNCaP) [nM]	Structure (SMILES)	inhibition at 3 µM (hERG (KCNH2)) [%]
6.4	–	–	–	Cn1ncc(Cl)c1-c1cc(C(=O)NC2CNCCC2c2ccc(F)c(F)c2)oc1Cl (racemic)	–
51.2	1090	490	–	Cn1ncc(Cl)c1-c1cc(C(=O)N[C@H]2CNCC[C@@H]2c2ccc(F)c(F)c2)oc1Cl	–
3.4	1710	1510	1930	CN(C)CC[C@@H]1C[C@@H](c2ccc(Cl)c(Cl)c2)[C@H](NC(=O)c2cc(-c3c(Cl)cnn3C)c(Cl)o2)CN1	73.4
3.79	1110	1610	70	Cn1ncc(Cl)c1-c1cc(C(=O)N[C@@H]2CN[C@H](CC(O)CO)C[C@H]2c2ccc(Cl)c(Cl)c2)oc1Cl (stereo not given in full)	17
8	390	120	–	Cn1ncc(Cl)c1-c1cc(C(=O)N[C@@H]2CNCC[C@H]2c2cccc(C(F)(F)F)c2)oc1Cl	–
9.3	280	120	–	Cn1ncc(Cl)c1-c1cc(C(=O)N[C@@H]2CNCC[C@H]2c2ccc(C(F)(F)F)cc2)oc1Cl	–
17.3	1870	1320	–	Cn1ncc(Cl)c1-c1cc(C(=O)N[C@@H]2CNCC[C@H]2c2ccc(Cl)cc2)oc1Cl	–
10.4	1020	1620	–	CCC[C@@H]1C[C@@H](c2ccc(Cl)c(Cl)c2)[C@H](NC(=O)c2cc(-c3c(Cl)cnn3C)c(Cl)o2)CN1	85.3
3650	–	–	–	Cn1ncc(Br)c1-c1coc(C(=O)NC2CNCC2c2ccc(F)c(F)c2)c1 (racemic)	–
2.49	920	880	130	CC(=O)NCC[C@@H]1C[C@@H](c2ccc(F)c(F)c2)[C@H](NC(=O)c2cc(-c3c(Cl)cnn3C)c(Cl)o2)CN1	7.4
3.4	690	4960	–	CC(=O)OCC[C@@H]1C[C@@H](c2ccc(F)c(F)c2)[C@H](NC(=O)c2cc(-c3c(Cl)cnn3C)c(Cl)o2)CN1	–
40	11700	6050	–	Cn1ncc(Cl)c1-c1oc(C(=O)N[C@@H]2CNCC[C@H]2c2ccc(Cl)cc2)cc1Br	–
1570	–	–	–	Cn1ncc(Cl)c1-c1coc(C(=O)NC2CNCC2c2ccc(F)c(F)c2)c1 (racemic)	–
2.9	280	110	100	Cn1ncc(Cl)c1-c1cc(C(=O)N[C@@H]2CNCC[C@H]2c2ccc(Cl)c(Cl)c2)oc1Cl	87
7.01	470	1060	250	COCC[C@@H]1C[C@@H](c2ccc(Cl)c(Cl)c2)[C@H](NC(=O)c2cc(-c3c(Cl)cnn3C)c(Cl)o2)CN1	–
215	34700	6120	–	Cn1ncc(Cl)c1-c1ccc(C(=O)N[C@@H]2CNCC[C@H]2c2ccc(F)c(F)c2)cn1	–
538	–	–	–	Cn1ncc(Cl)c1-c1cc(C(=O)NC2CNCC2c2ccc(C(F)(F)F)cc2)oc1Cl (stereo not given)	–
127	1050	900	–	Cn1ncc(Cl)c1-c1cc(C(=O)N[C@H]2CNCC[C@@H]2c2ccc(C(F)(F)F)cc2)oc1Cl	–
3.13	7090	5900	660	Cn1ncc(Cl)c1-c1cc(C(=O)N[C@@H]2CN[C@H](CC(=O)NCC(O)CO)C[C@H]2c2ccc(Cl)c(Cl)c2)oc1Cl (stereo not given in full)	–
5.1	990	1400	–	Cn1ncc(Cl)c1-c1coc(C(=O)N[C@@H]2CNCC[C@H]2c2ccc(F)c(F)c2)c1	–
17.3	–	–	–	Cn1ncc(Cl)c1-c1cc(C(=O)NC2CNCCC2c2ccc(Cl)cc2)oc1Cl (stereo not given)	–
17.6	–	–	–	Cn1ncc(Cl)c1-c1cc(C(=O)NC2CNCCC2c2ccccc2)oc1Cl (stereo not given)	–
27.3	9880	2180	–	Cn1ncc(Cl)c1-c1ccc(C(=O)N[C@@H]2CNCC[C@H]2c2ccc(F)c(F)c2)cc1	–
2.5	–	–	–	Cn1ncc(Cl)c1-c1cc(C(=O)N[C@@H]2CNCC[C@@H]2c2ccc(F)c(F)c2)oc1Cl	–
12.4	780	990	160	C=CC[C@@H]1C[C@@H](c2ccc(Cl)c(Cl)c2)[C@H](NC(=O)c2cc(-c3c(Cl)cnn3C)c(Cl)o2)CN1	–
7.2	–	–	–	Cn1ncc(Cl)c1-c1cc(C(=O)NC2CNCCC2c2ccc(C(F)(F)F)cc2)oc1Cl (stereo not given)	–
7.98	430	610	80	Cn1ncc(Cl)c1-c1cc(C(=O)N[C@@H]2CN[C@H](CC(=O)NC3CCC3)C[C@H]2c2ccc(Cl)c(Cl)c2)oc1Cl	–
222	2810	3510	–	Cn1ncc(Cl)c1-c1cc(C(=O)N[C@@H]2CNCC[C@H]2c2ccc(F)c(F)c2)sc1Cl	–
6.41	1940	1840	1920	Cn1ncc(Cl)c1-c1cc(C(=O)N[C@@H]2CN[C@H](CCN3CCCC3)C[C@H]2c2ccc(Cl)c(Cl)c2)oc1Cl	–
